For the series the following is noted: 101.33 kPa, Liquid.

Each structure is given as a SMILES string. Numbers after ± are expanded uncertainties.

As a reminder, the speed of sound is how fast a sound wave travels through the sample. For `O` [water], the speed of sound is, setting by setting: (298.15 K) 1498 ± 6.2 m/s; (308.15 K) 1519 ± 6.3 m/s; (318.15 K) 1535.1 ± 6.3 m/s; (328.15 K) 1545 ± 6.3 m/s; (338.15 K) 1551 ± 6.4 m/s.

In general, mass density refers to mass per unit of volume. The term viscosity denotes the resistance of a fluid to flow. With `CN1CCCC1=O` [N-methylpyrrolidone], the mass density runs as follows: (298.15 K) 1028.31 ± 0.68 kg/m3; (308.15 K) 1019.33 ± 0.63 kg/m3; (318.15 K) 1010.11 ± 0.57 kg/m3; (328.15 K) 1001.18 ± 0.51 kg/m3; (338.15 K) 992.234 ± 0.56 kg/m3. For the same molecule, the speed of sound is, setting by setting: (298.15 K) 1545.1 ± 13 m/s; (308.15 K) 1518.4 ± 12 m/s; (318.15 K) 1477.8 ± 12 m/s; (328.15 K) 1448.7 ± 12 m/s; (338.15 K) 1407.3 ± 12 m/s. Also, the viscosity (298.15 K) came out at 1.663 ± 0.078 mPa·s; the viscosity (308.15 K) worked out at 1.365 ± 0.065 mPa·s; the viscosity (318.15 K) stood at 1.21 ± 0.058 mPa·s; the viscosity (328.15 K) is 1.117 ± 0.054 mPa·s; the viscosity (338.15 K) came out at 0.986 ± 0.049 mPa·s.

Regarding `C=CN1CCCC1=O` [N-vinylpyrrolidone], the mass density is reported as 1042.04 ± 0.77 kg/m3 (298.15 K); 1033.19 ± 0.71 kg/m3 (308.15 K); 1024.38 ± 0.66 kg/m3 (318.15 K); 1015.58 ± 0.6 kg/m3 (328.15 K); 1006.77 ± 0.55 kg/m3 (338.15 K). Besides, the speed of sound (298.15 K) came to 1530.1 ± 6.3 m/s; the speed of sound (308.15 K) came to 1499.4 ± 6.2 m/s; the speed of sound (318.15 K) is 1467.6 ± 6.1 m/s; the speed of sound (328.15 K) was 1430.2 ± 6 m/s; the speed of sound (338.15 K) stood at 1403.3 ± 5.9 m/s. In addition, the viscosity is recorded as 2.942 ± 0.17 mPa·s (308.15 K), 2.59 ± 0.15 mPa·s (318.15 K), 2.259 ± 0.13 mPa·s (328.15 K) and 1.836 ± 0.11 mPa·s (338.15 K).

Regarding `O=C1CCCN1` [2-pyrrolidinone], the mass density runs as follows: (298.15 K) 1107.02 ± 2.4 kg/m3; (308.15 K) 1099.15 ± 2.3 kg/m3; (318.15 K) 1091.06 ± 2.2 kg/m3; (328.15 K) 1082.87 ± 2.1 kg/m3; (338.15 K) 1070.68 ± 1.9 kg/m3. In addition, the speed of sound reads like this: (298.15 K) 1633.2 ± 6.6 m/s; (308.15 K) 1603.1 ± 6.5 m/s; (328.15 K) 1549.7 ± 6.4 m/s; (338.15 K) 1520.1 ± 6.3 m/s. Further, the viscosity is, setting by setting: (298.15 K) 13.36 ± 0.48 mPa·s; (308.15 K) 8.844 ± 0.34 mPa·s; (318.15 K) 6.259 ± 0.26 mPa·s; (328.15 K) 4.677 ± 0.2 mPa·s; (338.15 K) 3.451 ± 0.15 mPa·s.

For the origin of these results see the NIST ThermoML archive (doi:10.1021/je0340809).
